Laboratory results: article PMC6287471 (International Journal for Parasitology: Drugs and Drug …, 2018)
Structures can show the parent of a compound that is named as a salt.

What follows are compounds tested against T1, Hco-ACC-2 F200W/W248F (Haemonchus contortus, UniProt A0A219KWM7, F200W/W248F) (assay: not given). Conditions: not given.
T1 sequence (A0A219KWM7 18-443 F200W/W248F): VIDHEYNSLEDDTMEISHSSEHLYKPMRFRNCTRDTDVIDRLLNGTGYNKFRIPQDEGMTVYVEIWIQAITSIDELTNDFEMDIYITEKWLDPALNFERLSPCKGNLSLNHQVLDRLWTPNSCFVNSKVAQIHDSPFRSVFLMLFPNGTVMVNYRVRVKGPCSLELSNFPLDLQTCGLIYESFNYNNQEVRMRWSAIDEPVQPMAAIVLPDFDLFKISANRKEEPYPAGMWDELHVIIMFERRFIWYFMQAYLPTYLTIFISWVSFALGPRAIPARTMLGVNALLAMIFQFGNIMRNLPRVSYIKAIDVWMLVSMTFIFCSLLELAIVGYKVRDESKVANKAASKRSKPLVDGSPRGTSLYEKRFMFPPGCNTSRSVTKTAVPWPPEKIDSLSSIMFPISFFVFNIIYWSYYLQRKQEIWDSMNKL
Type: cell-based
With `C[N+](C)(C)CCOC(N)=O` [Carbachol, Carbamoylcholine Chloride] the EC50 was > 20000 µM.
`C[N+](C)(C)CCO` [Choline, Choline Chloride] was tested, and the EC50 was > 20000 µM.
`c1ccc([C@H]2CN3CCSC3=N2)cc1` [Levamisole, Levamisole Hydrochloride] was tested, and the EC50 was > 20000 µM.
`CC(=O)OC(C)C[N+](C)(C)C` (stereo not drawn) [Methacholine, Acetyl-β-methylcholine Chloride] was tested, and the EC50 was > 20000 µM.
With `CN1CCCN=C1/C=C/c1cccs1` [Pyrantel, Pyrantel Citrate Salt] the EC50 was > 20000 µM.
`CC(C[N+](C)(C)C)OC(N)=O` (stereo not drawn) [Urecholine, Carbamyl-β-methylcholine chloride] was tested, and the EC50 was > 20000 µM.

Each compound was assayed against T2, Hco-ACC-2 F200W (Haemonchus contortus, UniProt A0A219KWM7, F200W) (assay: Two-electrode voltage clamp of Hco-ACC-2 F200W mutant in Xenopus laevis oocytes). Conditions: not given.
T2 sequence (A0A219KWM7 18-443 F200W): T1 sequence (A0A219KWM7 18-443 F200W/W248F)
Type: cell-based
`C[N+](C)(C)CCOC(N)=O` [Carbachol, Carbamoylcholine Chloride] showed an EC50 of 67 ± 4 µM.
Compound `C[N+](C)(C)CCO` [Choline, Choline Chloride] has an EC50 of 4770 ± 543 µM.
`CC(=O)OC(C)C[N+](C)(C)C` (stereo not drawn) [Methacholine, Acetyl-β-methylcholine Chloride] was tested, and the EC50 was 644 ± 84 µM.
`CN1CCCN=C1/C=C/c1cccs1` [Pyrantel, Pyrantel Citrate Salt] showed an EC50 of 160 ± 20 µM.
In the case of `CC(C[N+](C)(C)C)OC(N)=O` (stereo not drawn) [Urecholine, Carbamyl-β-methylcholine chloride], the EC50 is reported as 2150 ± 215 µM.

These compounds were tested against T3, Hco-ACC-2 F200Y (Haemonchus contortus, UniProt A0A219KWM7, F200Y) (assay: Two-electrode voltage clamp of Hco-ACC-2 F200Y mutant in Xenopus laevis oocytes). Conditions: EC50, F200Y mutant.
T3 sequence (A0A219KWM7 18-443 F200Y): T1 sequence (A0A219KWM7 18-443 F200W/W248F)
Type: cell-based
Work on `CN1CCC[C@H]1c1cccnc1` [Nicotine] yielded an EC50 of 277 ± 8 µM.

Same assay, conditions: EC50 ± standard error, F200Y, F200Y mutant, n ≥ 5 oocytes
Work on `C[N+](C)(C)CCOC(N)=O` [Carbachol, Carbamoylcholine Chloride] yielded an EC50 of 9.7 ± 0.5 µM.
In the case of `C[N+](C)(C)CCO` [Choline, Choline Chloride], the EC50 is reported as 650 ± 13 µM.
With `c1ccc([C@H]2CN3CCSC3=N2)cc1` [Levamisole, Levamisole Hydrochloride] the EC50 was 39 ± 3 µM.
`CC(=O)OC(C)C[N+](C)(C)C` (stereo not drawn) [Methacholine, Acetyl-β-methylcholine Chloride] gave an EC50 of 20 ± 1 µM.
For `CN1CCCN=C1/C=C/c1cccs1` [Pyrantel, Pyrantel Citrate Salt], the EC50 was 44 ± 2 µM.
`CC(C[N+](C)(C)C)OC(N)=O` (stereo not drawn) [Urecholine, Carbamyl-β-methylcholine chloride] showed an EC50 of 81 ± 3 µM.

What follows are compounds tested against T4, Hco-ACC-2 W248F (Haemonchus contortus, UniProt A0A219KWM7, W248F) (assay: Two-electrode voltage clamp of Hco-ACC-2 W248F mutant in Xenopus laevis oocytes). Conditions: not given.
T4 sequence (A0A219KWM7 18-443 W248F): T1 sequence (A0A219KWM7 18-443 F200W/W248F)
Type: cell-based
In the case of `C[N+](C)(C)CCOC(N)=O` [Carbachol, Carbamoylcholine Chloride], the EC50 is reported as > 1000 µM.
With `C[N+](C)(C)CCO` [Choline, Choline Chloride] the EC50 was > 1000 µM.
With `c1ccc([C@H]2CN3CCSC3=N2)cc1` [Levamisole, Levamisole Hydrochloride] the EC50 was > 1000 µM.
For `CC(=O)OC(C)C[N+](C)(C)C` (stereo not drawn) [Methacholine, Acetyl-β-methylcholine Chloride], the EC50 was > 1000 µM.
`CN1CCCN=C1/C=C/c1cccs1` [Pyrantel, Pyrantel Citrate Salt] was tested, and the EC50 was > 1000 µM.
With `CC(C[N+](C)(C)C)OC(N)=O` (stereo not drawn) [Urecholine, Carbamyl-β-methylcholine chloride] the EC50 was > 1000 µM.

Each compound was assayed against T5, Hco-ACC-2 W248Y (Haemonchus contortus, UniProt A0A219KWM7, W248Y) (assay: Two-electrode voltage clamp of Hco-ACC-2 W248Y mutant in Xenopus laevis oocytes). Conditions: not given.
T5 sequence (A0A219KWM7 18-443 W248Y): T1 sequence (A0A219KWM7 18-443 F200W/W248F)
Type: cell-based
In the case of `C[N+](C)(C)CCOC(N)=O` [Carbachol, Carbamoylcholine Chloride], the EC50 is reported as > 1000 µM.
`C[N+](C)(C)CCO` [Choline, Choline Chloride] was tested, and the EC50 was > 1000 µM.
For `c1ccc([C@H]2CN3CCSC3=N2)cc1` [Levamisole, Levamisole Hydrochloride], the EC50 was > 1000 µM.
With `CC(=O)OC(C)C[N+](C)(C)C` (stereo not drawn) [Methacholine, Acetyl-β-methylcholine Chloride] the EC50 was > 1000 µM.
In the case of `CN1CCCN=C1/C=C/c1cccs1` [Pyrantel, Pyrantel Citrate Salt], the EC50 is reported as > 1000 µM.
For `CC(C[N+](C)(C)C)OC(N)=O` (stereo not drawn) [Urecholine, Carbamyl-β-methylcholine chloride], the EC50 was > 1000 µM.
